The text below walks through data of patent US10947188B2, “Small molecule ferroptosis inducers” (THE TRUSTEES OF COLUMBIA UNIVERSITY IN THE CITY OF NEW YORK, priority 2016, dated 2021).

The EC50 is the midpoint of the concentration-response curve. A low value points to greater potency.

Values after ≈ are worked out from the molar mass of the structure shown. Some results are limits rather than exact numbers.

For the first experiment, the system named is HT-1080 cells. Nature of the experiment: Lethality of commercially available CIL41/70 structural analogs. Conditions: Homo sapiens, tested once in technical triplicates. The format is cell-based. A digest of the protocol:
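HT-1080 cells (1,000/well) dosed at seeding with twofold 12-point dilutions of lethal compounds. Viability read by Alamar Blue fluorescence (530/590 nm) after 6 h, normalized to media and vehicle wells. Analogs tested once, in technical triplicate.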
Regarding `Cc1ccc(OC/C(N)=N/OC(=O)CCn2cc(C(F)(F)F)ccc2=O)cc1` [MB17], the EC50 is > 20 µg/mL.
Still for that read-out and setting: next, `N/C(Cc1ccc(Cl)cc1)=N\OC(=O)C(c1ccccc1)c1ccccc1` [VM1]: 2 µg/mL (≈ 5.28 µM).
Still for that read-out and setting: as for `N/C(Cc1ccc(Cl)cc1Cl)=N\OC(=O)Cc1ccc(Cl)cc1` [VM2], the figure is > 20 µg/mL; as for `N/C(Cc1ccc(Cl)cc1Cl)=N\OC(=O)/C=C/c1ccccc1Cl` [VM3], 8.51 µg/mL (≈ 22.2 µM); as for `N/C(Cc1cccc2ccccc12)=N\OC(=O)CCc1ccccc1` [VM4], > 20 µg/mL.
The same measure, in the same setting: as for `N/C(Cc1ccc([N+](=O)[O-])cc1)=N\OC(=O)CCc1ccccc1` [VM5], the figure is > 20 µg/mL; as for `Cc1nn(C/C(N)=N/OC(=O)C2CCCCC2)c(C)c1Br` [ZE1], > 20 µg/mL.
As for `Cc1nn(C/C(N)=N/OC(=O)CC23CC4CC(CC(C4)C2)C3)c(C)c1Br` [ZE2], the EC50 was determined as 15.6 µg/mL (≈ 36.9 µM).
With `COc1ccc(CC(=O)O/N=C(\N)Cn2nc(C(F)(F)F)cc2C)cc1` [ZE3], the EC50 was > 20 µg/mL.
Same read-out and setting: as for `Cc1nn(C/C(N)=N/OC(=O)C(C)C)c(C)c1[N+](=O)[O-]` [ZE4], the figure is > 20 µg/mL.
In the case of `COc1ccc(CC(=O)O/N=C(/N)Cn2nc(C)c([N+](=O)[O-])c2C)cc1` [ZE5], the EC50 is > 20 µg/mL.
With `CCC(=O)O/N=C(/N)Cn1nc(C(F)(F)F)cc1C` [ZE6], the EC50 is > 20 µg/mL.
With `COc1ccc(CC(=O)O/N=C(/N)Cn2nc(C)c(Br)c2C)cc1` [ZE7], the concentration giving a half-maximal response (EC50) is > 20 µg/mL.
On the same count and under the same terms, next, `Cc1cc(C(F)(F)F)nn1C/C(N)=N/OC(=O)CC12CC3CC(CC(C3)C1)C2` [ZE8]: > 20 µg/mL; `Cc1nn(C/C(N)=N/OC(=O)Cn2nc(C(F)(F)F)cc2C2CC2)c(C)c1[N+](=O)[O-]` [ZE9]: > 20 µg/mL; `Cc1cc(C(F)(F)F)nn1C/C(N)=N/OC(=O)CC1CC2CCC1C2` (stereo not drawn) [ZE10]: > 20 µg/mL.
The same measure, in the same setting: next, `N/C(Cn1c(C(F)(F)F)nc2ccccc21)=N\OC(=O)CC1CC2CCC1C2` (stereo not drawn) [ZE11]: > 20 µg/mL.
With `CC1=C(Br)C(C)N(C/C(N)=N/OC(=O)CC2CC3CCC2C3)N1` (stereo not drawn) [ZE12], the EC50 is > 20 µg/mL.
`Cc1cccc(OCC(=O)O/N=C(/N)Cn2nc(C)c([N+](=O)[O-])c2C)c1` [ZE13]: the EC50 was > 20 µg/mL.
The same measure, in the same setting: next, `Cc1nn(C/C(N)=N\OC(=O)COc2cc(Cl)ccc2Cl)c(C)c1[N+](=O)[O-]` [ZE14]: > 20 µg/mL; `Cc1cc(C(F)(F)F)nn1C/C(N)=N/OC(=O)C1CCCCC1` [ZE15]: > 20 µg/mL.
On the same count and under the same terms, next, `N/C(Cc1ccc(Cl)cc1)=N\OC(=O)Cc1ccccc1` [ZE16]: > 20 µg/mL.
Same read-out and setting: next, `CC(=O)O/N=C(N)/C(N)=N/OC(C)=O` [ZE17]: > 20 µg/mL.

A further experiment relates to HT-1080 cells. Briefly: Cell viability assay (Alamar Blue), lethal compounds with or without modulators. The format is cell-based. The settings on record: HT-1080; 48 hrs. The procedure: 1,000 cells per 36 μl were seeded in each well in 384-well plates. Lethal compounds were dissolved, and a twofold, 12-point dilution series was prepared in DMSO. Compound solutions were further diluted with media at 1:25, and 4 μl per well of the diluted solutions was added to cell cultures immediately after cells were seeded. […] When other cell-death-modulating compounds (100 nM sodium selenite, 1 μM cerivastatin, 100 μg/mL mevalonic acid) were used in cotreatments, they were supplemented to cell culture for 24 h before lethal compounds were added to cell culture, after which cells were further incubated for 24 h at 37° C. under 5% CO2. On the day of the viability measurement, we added 10 μl per well of 50% Alamar Blue diluted in media (Life Technologies) and further incubated the cells at 37° C. for 6 h. Fluorescence intensity (excitation/emission: 530/590) was measured with a Victor 3 plate reader (PerkinElmer), and the normalized viability was calculated as VL=(IL−I0)/(IV−I0), where VL, I0, IV, and IL are the normalized viability and the raw fluorescence intensities from the wells containing media, cells treated with a vehicle (negative control), and cells with the lethal compound (L), respectively. When the effect of a chemical modulator (M) on L was calculated, we instead used the equation VL|M=(IM,L−I0)/(IM,V−I0), where VL|M, IM,L and IM,V are the normalized viability, and fluorescence intensity from cells treated with […], respectively. The viability was typically measured in biological triplicate unless otherwise specified. A representative dose-response curve, the mean and standard error of normalized viability from one replicate were plotted. […]
On the technique in general: Alamar Blue is a resazurin reagent that responds to reducing activity.
`O=S(=O)(NC1CCOCC1)c1ccc2c(c1)C(=NO)c1cc(S(=O)(=O)NC3CCOCC3)ccc1-2` [SRS8-18, 9-(hydroxyimino)-N2,N7-bis(tetrahydro-2H-pyran-4-yl)-9H-fluorene-2,7-disulfonamide]: the “ferroptosis-inducing activity of FIN56 analogs” value is listed as “complete loss of activity”.
For `O=S(=O)(NC1CCOCC1)c1ccc2c(c1)C(=NOCCOCCOCCO)c1cc(S(=O)(=O)NC3CCOCC3)ccc1-2` [SRS11-66, 9-(2-(2-(2-hydroxyethoxy)ethoxy)ethoxyimino)-N2,N7-bis(tetrahydro-2H-pyran-4-yl)-9H-fluorene-2,7-disulfonamide], the “ferroptosis-inducing activity of FIN56 analogs” value is reported as “complete loss of activity”.

The same experiment, now with this note: HT-1080 cells; cotreatment.
Regarding `N[C@@H]1CCCN(c2c(/C=C3\SC(=O)NC3=O)cccc2-c2ccccc2)C1` [AZD-1208], the “effect of ferroptosis inhibitors (α-tocopherol, deferoxamine) on lethality” value is “the lethality was not suppressed by αToc”.
The same measure, in the same setting: next, `CN1CCCN(C(=O)c2cccc(-c3ccc(/C=C4/C(=O)Nc5ccc(Cl)cc54)o3)c2)CC1` [CX-6258]: “the lethality was not suppressed by αToc”.

Staying with this experiment, now noted: HT-1080 cells; modulator cotreatment or pretreatment.
Turning to `CNc1ccc2oc(C[C@H]3O[C@@]4(CC[C@H]3C)O[C@H]([C@H](C)C(=O)c3ccc[nH]3)[C@H](C)C[C@H]4C)nc2c1C(=O)O` [A23187], the “effect on FIN56 lethality” value is reported as “enhanced FIN56 lethality”.
With `O=C(O)CN(CC(=O)O)c1ccccc1OCCOc1ccccc1N(CC(=O)O)CC(=O)O` [BAPTA], the “effect on FIN56 lethality” value is listed as “suppressed it”.
Still for that read-out and setting: as for `O=C(O)CN(CCOCCOCCN(CC(=O)O)CC(=O)O)CC(=O)O` [EGTA, Ethyleneglycol-O,O′-bis(2-aminoethyl)-N,N,N′,N′-tetraacetic acid], the entry is “suppressed it”; as for `CC(C)=CCC/C(C)=C/CC/C(C)=C/COP(=O)(O)OP(=O)(O)O.N.N.N` [FPP, farnesyl-PP], “suppressed the lethality of FIN56”.
Take `F/C(COc1ccc2c(c1)[nH]c1ccccc12)=C1/CN2CCC1CC2` [YM-53601]: the “effect on FIN56 lethality” value is listed as “suppressed FIN56 lethality”.
Still for that read-out and setting: as for `C[C@H]1O[C@@H](O[C@H]2[C@@H](O)C[C@H](O[C@H]3[C@@H](O)C[C@H](O[C@H]4CC[C@@]5(C)[C@H](CC[C@@H]6[C@@H]5C[C@@H](O)[C@]5(C)[C@@H](C7=CC(=O)OC7)CC[C@]65O)C4)O[C@@H]3C)O[C@@H]2C)C[C@H](O)[C@@H]1O` [digoxin, Digoxin], the entry is “enhanced FIN56 lethality”.
On to `C[C@H](CCC(=O)O)C[C@H](C)C[C@H](C)C(=O)/C=C(\O)[C@H](C)C[C@H](C)C/C=C/[C@@H](C)[C@@H](O)[C@@H](C)[C@@H](O)C[C@@H]1CC[C@@](C)([C@H]2CC[C@@](C)([C@@H](C)O)O2)O1` [ionomycin], for which the “effect on FIN56 lethality” value was “enhanced FIN56 lethality”.
Same read-out and setting: as for `O=[Se]([O-])[O-].[Na+].[Na+]` [selenite, sodium selenite], the entry is “suppressed FIN56 lethality”.
On the same count and under the same terms, as for `C=C(CC[C@]12O[C@H](C(=O)O)[C@@](O)(C(=O)O)[C@](C(=O)O)(O1)[C@H](OC(=O)/C=C/[C@@H](C)C[C@@H](C)CC)[C@H]2O)[C@@H](OC(C)=O)[C@H](C)Cc1ccccc1` [zaragozic acid A], the entry is “suppressed FIN56 lethality”.
